{"source": "paper PMC3850926", "about": "“Evaluation of the adverse event profile and pharmacodynamics of toceranib phosphate administered to dogs with solid tumors at doses below the maximum tolerated dose” (BMC Veterinary Research, 2013)", "origin": "cited, not measured here", "key": {"human cancer patients": {"system": "human cancer patients", "conditions": "cited from earlier work"}, "VEGF": {"system": "VEGF", "parameters": "method as in PMID 19212818", "conditions": "human patients; return to baseline during rest period; cited from earlier work"}}}
{"smiles": "CCN(CC)CCNC(=O)c1c(C)[nH]c(/C=C2\\C(=O)Nc3ccc(F)cc32)c1C", "note": "[sunitinib]", "values": [{"measurement": "incidence of PLN", "setting": "human cancer patients; human cancer patients", "value": "approximately 2.5%"}, {"measurement": "hypertension classified as grade 3", "setting": "human cancer patients; human patients with RCC", "value": 8, "unit": "%"}, {"measurement": "patients that developed hypertension", "setting": "human cancer patients; human patients with renal cell carcinoma (RCC)", "value": 24, "unit": "%"}, {"measurement": "circulating endothelial precursors and plasma VEGF during treatment", "setting": "VEGF", "value": "increase over time during treatment"}]}
